# According to ChEMBL document CHEMBL4507320, “Data for DCP probe NVS-MALT1” (2021):
# Activity calls are given as the source filed them. The rule behind the calls is not given here.
# Tests used:
# [1] = target: Sigma intracellular receptor 2 (Homo sapiens, UniProt Q5BJF2); assay: GPCRScan assay: inhibition of Sigma 2; design: radioligand conc. used [nm] 5.0, parental cells HEKT
# [2] = target: Sigma non-opioid intracellular receptor 1 (Homo sapiens, UniProt Q99720); assay: GPCRScan assay: inhibition of Sigma 1; design: radioligand conc. used [nm] 4.0 – 5.0, parental cells HEKT
# [3] = target: Tyrosine-protein kinase ABL1 (Homo sapiens) (UniProt P00519); settings: Compound concentration 1000.0 nM
# [4] = target: NUAK family SNF1-like kinase 1 (Homo sapiens) (UniProt O60285); settings: Compound concentration 1000.0 nM
# [5] = target: Mitogen-activated protein kinase kinase kinase 6 (Homo sapiens) (UniProt O95382); settings: Compound concentration 1000.0 nM
# [6] = target: Peripheral plasma membrane protein CASK (Homo sapiens) (UniProt O14936); settings: Compound concentration 1000.0 nM
# Peripheral plasma membrane protein CASK (Homo sapiens), sequence (O14936 whole entry): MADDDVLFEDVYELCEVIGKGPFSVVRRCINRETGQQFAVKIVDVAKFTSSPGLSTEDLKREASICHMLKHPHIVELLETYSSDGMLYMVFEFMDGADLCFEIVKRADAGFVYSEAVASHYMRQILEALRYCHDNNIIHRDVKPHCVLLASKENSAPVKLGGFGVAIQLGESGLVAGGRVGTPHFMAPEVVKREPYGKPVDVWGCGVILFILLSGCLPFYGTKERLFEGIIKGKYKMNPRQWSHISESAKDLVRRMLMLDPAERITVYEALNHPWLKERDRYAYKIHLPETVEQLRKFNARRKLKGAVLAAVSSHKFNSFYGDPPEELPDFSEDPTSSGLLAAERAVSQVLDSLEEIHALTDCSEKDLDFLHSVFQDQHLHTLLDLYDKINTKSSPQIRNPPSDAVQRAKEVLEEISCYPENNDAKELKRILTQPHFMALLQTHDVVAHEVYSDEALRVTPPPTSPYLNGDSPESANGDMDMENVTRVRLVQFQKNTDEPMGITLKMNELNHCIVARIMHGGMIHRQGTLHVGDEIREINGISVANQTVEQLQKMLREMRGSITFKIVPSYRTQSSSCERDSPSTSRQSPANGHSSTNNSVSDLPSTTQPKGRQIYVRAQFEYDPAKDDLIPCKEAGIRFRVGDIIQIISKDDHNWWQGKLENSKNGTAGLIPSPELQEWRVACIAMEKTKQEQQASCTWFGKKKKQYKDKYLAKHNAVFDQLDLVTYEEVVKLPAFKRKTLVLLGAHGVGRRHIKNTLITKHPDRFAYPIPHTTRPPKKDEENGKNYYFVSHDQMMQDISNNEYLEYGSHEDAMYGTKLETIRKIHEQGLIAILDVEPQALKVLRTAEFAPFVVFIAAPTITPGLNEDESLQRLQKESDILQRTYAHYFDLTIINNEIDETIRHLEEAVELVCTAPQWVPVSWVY
# [7] = target: Serine/threonine-protein kinase Chk1 (Homo sapiens) (UniProt O14757); settings: Compound concentration 1000.0 nM
# [8] = system: Epidermal growth factor receptor (Homo sapiens), P00533 [G719C]; settings: Compound concentration 1000.0 nM
# [9] = target: Mitogen-activated protein kinase 3 (Homo sapiens) (UniProt P27361); settings: Compound concentration 1000.0 nM
# [10] = target: Mitogen-activated protein kinase 1 (Homo sapiens) (UniProt P28482); settings: Compound concentration 1000.0 nM
# [11] = target: Tyrosine-protein kinase Fes/Fps (Homo sapiens) (UniProt P07332); settings: Compound concentration 1000.0 nM
# [12] = target: Vascular endothelial growth factor receptor 1 (Homo sapiens) (UniProt P17948); settings: Compound concentration 1000.0 nM
# [13] = target: T1, Receptor-type tyrosine-protein kinase FLT3 (Homo sapiens, UniProt P36888); settings: Compound concentration 1000.0 nM
# T1 sequence (P36888 whole entry): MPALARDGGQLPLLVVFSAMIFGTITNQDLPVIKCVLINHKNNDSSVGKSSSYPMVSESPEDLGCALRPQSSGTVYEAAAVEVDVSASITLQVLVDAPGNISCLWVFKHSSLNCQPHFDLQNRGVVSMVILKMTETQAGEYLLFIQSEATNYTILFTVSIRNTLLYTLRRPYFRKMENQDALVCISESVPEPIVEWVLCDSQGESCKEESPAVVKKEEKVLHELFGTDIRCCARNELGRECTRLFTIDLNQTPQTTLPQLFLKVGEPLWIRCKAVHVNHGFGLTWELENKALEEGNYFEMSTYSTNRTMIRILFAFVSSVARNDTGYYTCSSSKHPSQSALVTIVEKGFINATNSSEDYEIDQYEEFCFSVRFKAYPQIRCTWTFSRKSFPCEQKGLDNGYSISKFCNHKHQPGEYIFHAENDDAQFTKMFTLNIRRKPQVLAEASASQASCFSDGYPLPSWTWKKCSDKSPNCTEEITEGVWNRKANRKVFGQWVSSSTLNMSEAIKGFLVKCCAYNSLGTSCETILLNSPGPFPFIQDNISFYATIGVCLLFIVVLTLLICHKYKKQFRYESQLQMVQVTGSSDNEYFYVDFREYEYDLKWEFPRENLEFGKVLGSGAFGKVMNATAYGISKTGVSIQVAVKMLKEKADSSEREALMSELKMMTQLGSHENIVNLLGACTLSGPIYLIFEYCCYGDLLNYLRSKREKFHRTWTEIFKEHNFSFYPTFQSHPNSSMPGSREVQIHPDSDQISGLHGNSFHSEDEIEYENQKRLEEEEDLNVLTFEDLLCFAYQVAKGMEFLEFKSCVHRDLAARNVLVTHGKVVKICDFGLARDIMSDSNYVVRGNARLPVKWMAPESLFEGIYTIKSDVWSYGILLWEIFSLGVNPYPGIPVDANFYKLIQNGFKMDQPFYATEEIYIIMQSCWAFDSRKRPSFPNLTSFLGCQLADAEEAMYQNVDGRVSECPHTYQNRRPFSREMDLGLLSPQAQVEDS
# [14] = target: Vascular endothelial growth factor receptor 3 (Homo sapiens) (UniProt P35916); settings: Compound concentration 1000.0 nM
# [15] = target: Cyclin-G-associated kinase (Homo sapiens) (UniProt O14976); settings: Compound concentration 1000.0 nM
# [16] = target: Rhodopsin kinase GRK1 (Homo sapiens) (UniProt Q15835); settings: Compound concentration 1000.0 nM
# [17] = target: G protein-coupled receptor kinase 3 (Homo sapiens) (UniProt P35626); settings: Compound concentration 1000.0 nM
# [18] = target: Glycogen synthase kinase-3 beta (Homo sapiens) (UniProt P49841); settings: Compound concentration 1000.0 nM
# Glycogen synthase kinase-3 beta (Homo sapiens), sequence (P49841 whole entry, looked up): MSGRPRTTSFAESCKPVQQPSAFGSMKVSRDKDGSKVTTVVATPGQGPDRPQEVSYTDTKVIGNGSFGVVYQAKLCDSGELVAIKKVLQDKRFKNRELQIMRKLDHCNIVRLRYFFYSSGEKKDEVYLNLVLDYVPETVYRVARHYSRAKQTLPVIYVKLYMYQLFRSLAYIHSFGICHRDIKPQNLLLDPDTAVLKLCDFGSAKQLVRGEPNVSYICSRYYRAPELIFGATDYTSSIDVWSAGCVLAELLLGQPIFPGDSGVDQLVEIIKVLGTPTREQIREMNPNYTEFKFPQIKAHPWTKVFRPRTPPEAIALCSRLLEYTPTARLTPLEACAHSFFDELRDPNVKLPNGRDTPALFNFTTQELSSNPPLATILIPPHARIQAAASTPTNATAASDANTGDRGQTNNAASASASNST
# [19] = target: Homeodomain-interacting protein kinase 4 (Homo sapiens) (UniProt Q8NE63); settings: Compound concentration 1000.0 nM
# [20] = target: Interleukin-1 receptor-associated kinase 3 (Homo sapiens) (UniProt Q9Y616); settings: Compound concentration 1000.0 nM
# [21] = target: Tyrosine-protein kinase JAK1 (Homo sapiens) (UniProt P23458); settings: Compound concentration 1000.0 nM
# [22] = target: LIM domain kinase 2 (Homo sapiens) (UniProt P53671); settings: Compound concentration 1000.0 nM
# [23] = target: Dual specificity mitogen-activated protein kinase kinase 6 (Homo sapiens) (UniProt P52564); settings: Compound concentration 1000.0 nM
# [24] = target: Myosin light chain kinase, smooth muscle (Homo sapiens) (UniProt Q15746); settings: Compound concentration 1000.0 nM
# [25] = target: Cyclin-dependent kinase 17 (Homo sapiens) (UniProt Q00537); settings: Compound concentration 1000.0 nM
# [26] = target: Cyclin-dependent kinase 15 (Homo sapiens) (UniProt Q96Q40); settings: Compound concentration 1000.0 nM
# [27] = target: Phosphatidylinositol 4,5-bisphosphate 3-kinase catalytic subunit alpha isoform (Homo sapiens) (UniProt P42336); settings: Compound concentration 1000.0 nM
# Phosphatidylinositol 4,5-bisphosphate 3-kinase catalytic subunit alpha isoform (Homo sapiens), sequence (P42336 whole entry, canonical isoform): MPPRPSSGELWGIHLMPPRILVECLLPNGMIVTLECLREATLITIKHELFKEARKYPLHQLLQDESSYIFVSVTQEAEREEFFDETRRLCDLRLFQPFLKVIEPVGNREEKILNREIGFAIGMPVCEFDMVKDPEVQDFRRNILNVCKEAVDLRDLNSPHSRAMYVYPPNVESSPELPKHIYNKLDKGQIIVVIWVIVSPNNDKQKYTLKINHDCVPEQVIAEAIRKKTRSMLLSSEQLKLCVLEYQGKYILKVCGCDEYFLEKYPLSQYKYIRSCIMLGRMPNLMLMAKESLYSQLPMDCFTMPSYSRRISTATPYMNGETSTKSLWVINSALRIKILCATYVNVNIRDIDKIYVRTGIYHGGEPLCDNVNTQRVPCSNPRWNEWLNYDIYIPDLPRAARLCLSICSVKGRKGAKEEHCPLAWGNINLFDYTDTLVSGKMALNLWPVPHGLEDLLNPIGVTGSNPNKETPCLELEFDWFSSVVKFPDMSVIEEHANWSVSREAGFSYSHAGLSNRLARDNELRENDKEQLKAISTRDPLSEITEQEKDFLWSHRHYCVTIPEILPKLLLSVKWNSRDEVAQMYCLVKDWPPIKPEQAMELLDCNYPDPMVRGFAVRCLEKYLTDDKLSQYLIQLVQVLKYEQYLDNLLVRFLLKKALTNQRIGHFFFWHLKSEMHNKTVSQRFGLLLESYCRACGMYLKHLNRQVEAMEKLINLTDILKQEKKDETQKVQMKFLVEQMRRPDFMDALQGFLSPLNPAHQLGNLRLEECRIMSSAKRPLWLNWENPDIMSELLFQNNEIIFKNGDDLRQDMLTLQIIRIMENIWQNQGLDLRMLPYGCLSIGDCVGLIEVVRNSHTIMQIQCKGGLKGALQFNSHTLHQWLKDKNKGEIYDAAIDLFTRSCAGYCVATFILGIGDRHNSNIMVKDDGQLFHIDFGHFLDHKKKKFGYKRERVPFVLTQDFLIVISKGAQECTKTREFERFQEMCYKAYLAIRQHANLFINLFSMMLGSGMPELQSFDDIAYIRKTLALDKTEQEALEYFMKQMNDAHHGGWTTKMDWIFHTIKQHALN
# [28] = target: Protein kinase C delta type (Homo sapiens) (UniProt Q05655); settings: Compound concentration 1000.0 nM
# [29] = target: Serine/threonine-protein kinase SIK1 (Homo sapiens) (UniProt P57059); settings: Compound concentration 1000.0 nM
# [30] = target: Non-receptor tyrosine-protein kinase TNK1 (Homo sapiens) (UniProt Q13470); settings: Compound concentration 1000.0 nM
# [31] = target: Non-receptor tyrosine-protein kinase TYK2 (Homo sapiens) (UniProt P29597); settings: Compound concentration 1000.0 nM
# Non-receptor tyrosine-protein kinase TYK2 (Homo sapiens), sequence (P29597 whole entry): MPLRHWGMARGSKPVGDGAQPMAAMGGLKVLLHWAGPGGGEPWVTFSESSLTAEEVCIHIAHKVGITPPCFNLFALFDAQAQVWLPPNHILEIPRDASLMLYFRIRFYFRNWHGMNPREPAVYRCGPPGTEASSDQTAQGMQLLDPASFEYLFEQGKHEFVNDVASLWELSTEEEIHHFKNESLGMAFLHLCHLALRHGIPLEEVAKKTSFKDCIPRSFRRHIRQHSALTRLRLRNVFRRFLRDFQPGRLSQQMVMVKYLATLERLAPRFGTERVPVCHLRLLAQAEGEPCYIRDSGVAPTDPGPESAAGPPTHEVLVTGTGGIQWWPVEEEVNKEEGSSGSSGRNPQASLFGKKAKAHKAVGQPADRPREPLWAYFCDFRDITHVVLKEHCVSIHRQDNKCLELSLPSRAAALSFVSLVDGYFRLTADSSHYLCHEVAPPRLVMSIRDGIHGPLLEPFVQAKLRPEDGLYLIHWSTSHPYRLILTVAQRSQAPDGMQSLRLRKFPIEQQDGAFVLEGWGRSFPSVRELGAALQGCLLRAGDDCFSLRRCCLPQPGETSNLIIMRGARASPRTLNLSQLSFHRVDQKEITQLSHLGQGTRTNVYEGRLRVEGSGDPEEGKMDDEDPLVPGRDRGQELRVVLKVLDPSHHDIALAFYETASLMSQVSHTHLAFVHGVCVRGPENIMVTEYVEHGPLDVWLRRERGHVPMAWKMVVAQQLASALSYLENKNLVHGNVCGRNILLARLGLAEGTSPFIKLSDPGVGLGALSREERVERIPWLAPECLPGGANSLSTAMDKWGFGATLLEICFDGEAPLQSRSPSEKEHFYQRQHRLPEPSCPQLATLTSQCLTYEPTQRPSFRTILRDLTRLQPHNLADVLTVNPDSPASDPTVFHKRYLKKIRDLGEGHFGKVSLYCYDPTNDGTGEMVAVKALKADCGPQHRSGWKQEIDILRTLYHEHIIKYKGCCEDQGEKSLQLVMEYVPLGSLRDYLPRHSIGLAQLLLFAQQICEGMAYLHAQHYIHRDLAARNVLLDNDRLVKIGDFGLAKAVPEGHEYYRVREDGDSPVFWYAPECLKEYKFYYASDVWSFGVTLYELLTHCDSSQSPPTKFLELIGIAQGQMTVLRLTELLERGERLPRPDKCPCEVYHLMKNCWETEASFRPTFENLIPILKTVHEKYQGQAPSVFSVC
# [32] = target: D(2) dopamine receptor (Homo sapiens) (UniProt P14416); settings: Compound concentration 10.0 uM
# [33] = target: Histamine H1 receptor (Homo sapiens) (UniProt P35367); settings: Compound concentration 10.0 uM
# Histamine H1 receptor (Homo sapiens), sequence (P35367 whole entry): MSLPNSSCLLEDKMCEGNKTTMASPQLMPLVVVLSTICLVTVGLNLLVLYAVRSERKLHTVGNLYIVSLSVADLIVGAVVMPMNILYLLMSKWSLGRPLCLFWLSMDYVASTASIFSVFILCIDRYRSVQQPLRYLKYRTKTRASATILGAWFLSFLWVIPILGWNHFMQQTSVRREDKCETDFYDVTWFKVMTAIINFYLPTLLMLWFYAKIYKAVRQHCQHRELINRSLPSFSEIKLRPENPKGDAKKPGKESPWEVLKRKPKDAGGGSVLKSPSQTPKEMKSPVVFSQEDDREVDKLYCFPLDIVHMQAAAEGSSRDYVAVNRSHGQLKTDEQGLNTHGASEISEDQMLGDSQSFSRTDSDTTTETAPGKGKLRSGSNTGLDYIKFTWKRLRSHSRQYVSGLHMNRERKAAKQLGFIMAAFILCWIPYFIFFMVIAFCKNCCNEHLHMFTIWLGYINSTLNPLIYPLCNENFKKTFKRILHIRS
# [34] = target: Muscarinic acetylcholine receptor M1 (Homo sapiens) (UniProt P11229); settings: Compound concentration 10.0 uM
# [35] = target: T1, Receptor-type tyrosine-protein kinase FLT3; assay: Kinase panel; design: compound concentration 10 uM
# [36] = target: Cathepsin B (Homo sapiens) (UniProt P07858); assay: Cathepsin B (h) Protease assay; settings: Compound concentration 10.0 uM
# [37] = target: Cathepsin D (Homo sapiens) (UniProt P07339); assay: Cathepsin D (h) Protease assay; settings: Compound concentration 10.0 uM
# [38] = target: Cathepsin G (Homo sapiens) (UniProt P08311); assay: Cathepsin G (h) Protease assay; settings: Compound concentration 10.0 uM
# [39] = target: Cathepsin K (Homo sapiens) (UniProt P43235); assay: Cathepsin K (h) Protease assay; settings: Compound concentration 10.0 uM
# [40] = target: Procathepsin L (Homo sapiens) (UniProt P07711); assay: Cathepsin L (h) Protease assay; settings: Compound concentration 10.0 uM
# Caspase-3 (Homo sapiens) = Caspase-3 (Homo sapiens) (UniProt P42574); assay: Caspase 3 (h) Protease assay; settings: Compound concentration 10.0 uM
# [41] = target: Neutrophil elastase (Homo sapiens) (UniProt P08246); assay: Neutrophil elastase 2 (h) Protease assay; settings: Compound concentration 10.0 uM
# [42] = target: Coagulation factor VII (Homo sapiens) (UniProt P08709); assay: Factor VIIa (h) Protease assay; settings: Compound concentration 10.0 uM
# [43] = target: Coagulation factor X (Homo sapiens) (UniProt P00742); assay: Factor Xa (h) Protease assay; settings: Compound concentration 10.0 uM
# Trypsin (Homo sapiens) = Trypsin (Homo sapiens) (UniProt P07477+P07478+P35030); assay: Trypsin (h) Protease assay; format: protein assay; settings: Compound concentration 10.0 uM
# [44] = target: Plasma kallikrein (Homo sapiens) (UniProt P03952); assay: Plasma Kallikrein Protease assay; settings: Compound concentration 10.0 uM
# [45] = target: Beta-1 adrenergic receptor (Homo sapiens) (UniProt P08588); settings: Compound concentration 10.0 uM
compound,measurement,setting,value
CO[C@@H](C)c1c(Nc2ccc([C@@H](N(C)C(=O)C3CCS(=O)(=O)CC3)C(F)(F)F)cc2)cnc2cc(Cl)nn12 [NVS-MALT1-C],Ki,[1],0.89 µM
same,Ki,[2],1.59 µM
same,residual activity,[3],74%
same,residual activity,[4],99%
same,residual activity,[5],100%
same,residual activity,[6],100%
same,residual activity,[7],95%
same,residual activity,[8],98%
same,residual activity,[9],86%
same,residual activity,[10],100%
same,residual activity,[11],100%
same,residual activity,[12],85%
same,residual activity,[13],94%
same,residual activity,[14],84%
same,residual activity,[15],93%
same,residual activity,[16],86%
same,residual activity,[17],91%
same,residual activity,[18],100%
same,residual activity,[19],100%
same,residual activity,[20],86%
same,residual activity,[21],89%
same,residual activity,[22],87%
same,residual activity,[23],92%
same,residual activity,[24],98%
same,residual activity,[25],100%
same,residual activity,[26],94%
same,residual activity,[27],92%
same,residual activity,[28],90%
same,residual activity,[29],85%
same,residual activity,[30],87%
same,residual activity,[31],98%
same,inhibition,[32],-4.3%
same,inhibition,[33],-9.88%
same,inhibition,[34],-2.39%
CO[C@@H](C)c1c(Nc2ccc([C@H](N(C)C(=O)C3CCS(=O)(=O)CC3)C(F)(F)F)cc2)cnc2cc(Cl)nn12 [NVS-MALT1],IC50,[35],3.5 µM (active)
same,inhibition,[36],-4%
same,inhibition,[37],0%
same,inhibition,[38],7%
same,inhibition,[39],2%
same,inhibition,[40],-3%
same,inhibition,Caspase-3 (Homo sapiens),-1%
same,inhibition,[41],-1%
same,inhibition,[42],-1%
same,inhibition,[43],-9%
same,inhibition,Trypsin (Homo sapiens),0.8%
same,inhibition,[44],5%
same,residual activity,[3],63%
same,residual activity,[4],98%
same,residual activity,[5],100%
same,residual activity,[6],100%
same,residual activity,[7],91%
same,residual activity,[8],100%
same,residual activity,[9],100%
same,residual activity,[10],100%
same,residual activity,[11],100%
same,residual activity,[12],82%
same,residual activity,[13],100%
same,residual activity,[14],89%
same,residual activity,[15],98%
same,residual activity,[16],82%
same,residual activity,[17],100%
same,residual activity,[18],100%
same,residual activity,[19],72%
same,residual activity,[20],68%
same,residual activity,[21],100%
same,residual activity,[22],91%
same,residual activity,[23],91%
same,residual activity,[24],95%
same,residual activity,[25],75%
same,residual activity,[26],74%
same,residual activity,[27],94%
same,residual activity,[28],79%
same,residual activity,[29],87%
same,residual activity,[30],100%
same,residual activity,[31],100%
same,inhibition,[32],4.1%
same,inhibition,[33],10.2%
same,inhibition,[45],20.6%
